# Data as given in patent publication US9688710B2, “Inhibitors of sodium glucose cotransporter 1” (LEXICON PHARMACEUTICALS, INC., priority 2012, dated 2017).
# Tests used:
# [1] = molecular target: Human sodium/glucose co-transporter type 2 (SGLT2) (Homo sapiens (Human), UniProt P31639); experiment: In vitro human SGLT2 inhibition assay (14C-AMG uptake); format: cell-based; settings: HEK293 cells expressing human HA-SGLT2, 14C-AMG uptake
# Description: Human sodium/glucose co-transporter type 2 (SGLT2; accession number P31639; GI:400337) was cloned into pIRESpuro2 vector for mammalian expression (construct: HA-SGLT2-pIRESpuro2).
# HEK293 cells were transfected with the human HA-SGLT2-pIRESpuro2 vector and the bulk stable cell line was selected in presence of 0.5 μg/mL of puromycin. Human HA-SGLT2 cells were maintained in DMEM media containing 10% FBS, 1% GPS and 0.5 μg/mL of puromycin.
# The HEK293 cells expressing the human HA-SGLT2 were seeded in 384 well plates (30,000 cells/well) in DMEM media containing 10% FBS, 1% GPS and 0.5 μg/mL of puromycin, then incubated overnight at 37 C, 5% CO2. Cells were then washed with uptake buffer (140 mM NaCl, 2 mM KCl, 1 mM CaCl2, 1 mM MgCl2, 10 mM HEPES, 5 mM Tris, 1 mg/mL bovine serum albumin (BSA), pH 7.3). Twenty microliters of uptake buffer with or without testing compounds were added to the cells. Then, 20 microliters of uptake buffer containing ^14C-AMG (100 nCi) were added to the cells. The cell plates were incubated at 37° C., 5% CO2 for 1-2 hours. After washing the cells with uptake buffer, scintillation fluid was added (40 microliters/well) and ^14C-AMG uptake was measured by counting radioactivity using a scintillation coulter (TopCoulter NXT; Packard Instruments).
# [2] = molecular target: Human sodium/glucose co-transporter type 1 (SGLT1) (Homo sapiens (Human), UniProt P13866); experiment: In vitro human SGLT1 inhibition assay (14C-AMG uptake); format: cell-based; design: key to SGLT1 (human SGLT1 IC50): ***: a value less than 0.01 μM; **: a value less than 0.1 μM; *: a value less than 1 μM; —: a value not measured or exceeding μM; settings: HEK293 cells expressing human HA-SGLT1, 14C-AMG uptake
# Description: Human sodium/glucose co-transporter type 1 (SGLT1; accession number NP_000334; GI: 4507031) was cloned into pIRESpuro2 vector for mammalian expression (construct: HA-SGLT1-pIRESpuro2).
# HEK293 cells were transfected with the human HA-SGLT1-pIRESpuro2 vector and the bulk stable cell line was selected in presence of 0.5 μg/mL of puromycin. Human HA-SGLT1 cells were maintained in DMEM media containing 10% FBS, 1% GPS and 0.5 μg/mL of puromycin.
# The HEK293 cells expressing the human HA-SGLT1 were seeded in 384 well plates (30,000 cells/well) in DMEM media containing 10% FBS, 1% GPS and 0.5 μg/mL of puromycin, then incubated overnight at 37 C, 5% CO2. Cells were then washed with uptake buffer (140 mM NaCl, 2 mM KCl, 1 mM CaCl2, 1 mM MgCl2, 10 mM HEPES, 5 mM Tris, 1 mg/mL bovine serum albumin (BSA), pH 7.3). Twenty microliters of uptake buffer with or without testing compounds were added to the cells. Then, 20 microliters of uptake buffer containing ^14C-AMG (100 nCi) were also added to cells. The cell plates were incubated at 37° C., 5% CO2 for 1-2 hours. After washing the cells with uptake buffer, scintillation fluid was added (40 microliters/well) and ^14C-AMG uptake was measured by counting radioactivity using a scintillation coulter (TopCoulter NXT; Packard Instruments).
# Sequence of Human sodium/glucose co-transporter type 2 (SGLT2) (P31639 whole entry): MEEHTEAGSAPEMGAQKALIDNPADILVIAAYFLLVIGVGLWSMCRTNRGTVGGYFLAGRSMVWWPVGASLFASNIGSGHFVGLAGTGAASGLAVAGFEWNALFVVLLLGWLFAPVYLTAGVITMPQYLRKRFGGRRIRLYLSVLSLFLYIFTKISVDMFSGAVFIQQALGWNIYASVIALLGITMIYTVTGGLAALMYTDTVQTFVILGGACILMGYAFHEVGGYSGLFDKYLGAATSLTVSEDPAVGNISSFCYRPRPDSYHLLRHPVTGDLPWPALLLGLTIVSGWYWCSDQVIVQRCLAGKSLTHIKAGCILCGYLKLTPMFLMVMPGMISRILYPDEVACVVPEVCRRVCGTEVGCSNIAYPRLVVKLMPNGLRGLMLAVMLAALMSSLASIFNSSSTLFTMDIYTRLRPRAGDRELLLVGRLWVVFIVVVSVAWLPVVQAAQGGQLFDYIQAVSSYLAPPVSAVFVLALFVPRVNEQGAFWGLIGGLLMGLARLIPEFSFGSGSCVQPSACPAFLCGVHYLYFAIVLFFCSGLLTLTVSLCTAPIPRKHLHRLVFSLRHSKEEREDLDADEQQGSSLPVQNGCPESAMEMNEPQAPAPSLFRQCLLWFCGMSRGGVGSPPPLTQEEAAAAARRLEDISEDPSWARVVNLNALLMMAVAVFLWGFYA
# Sequence of Human sodium/glucose co-transporter type 1 (SGLT1) (P13866 whole entry): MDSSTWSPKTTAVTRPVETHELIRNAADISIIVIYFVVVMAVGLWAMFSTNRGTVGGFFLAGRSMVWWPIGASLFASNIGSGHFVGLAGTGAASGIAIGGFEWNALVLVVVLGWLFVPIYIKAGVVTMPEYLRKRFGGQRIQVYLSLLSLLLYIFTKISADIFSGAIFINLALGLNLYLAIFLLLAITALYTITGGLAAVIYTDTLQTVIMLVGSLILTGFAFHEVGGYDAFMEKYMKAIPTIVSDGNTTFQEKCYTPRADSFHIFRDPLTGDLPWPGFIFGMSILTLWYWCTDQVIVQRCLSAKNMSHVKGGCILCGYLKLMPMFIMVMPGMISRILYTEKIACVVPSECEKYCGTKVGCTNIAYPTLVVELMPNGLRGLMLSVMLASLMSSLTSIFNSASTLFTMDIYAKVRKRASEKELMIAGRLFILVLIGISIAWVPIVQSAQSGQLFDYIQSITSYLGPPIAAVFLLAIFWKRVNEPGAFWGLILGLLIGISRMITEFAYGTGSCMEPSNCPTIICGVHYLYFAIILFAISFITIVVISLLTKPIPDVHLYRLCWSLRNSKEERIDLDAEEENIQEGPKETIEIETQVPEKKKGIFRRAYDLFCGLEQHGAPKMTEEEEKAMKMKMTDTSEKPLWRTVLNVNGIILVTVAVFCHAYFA
IC50 [1] [nM],SGLT1 (human SGLT1 IC50) [2],IC50 [2] [nM],Compound
< 100,—,,"CS[C@H]1O[C@@H](c2ccc(Cl)c(Cc3ccc(OCCCC(=O)NC(C)(C)C(=O)O)cc3)c2)[C@H](O)[C@@H](O)[C@@H]1O [2-(4-(4-(2-chloro-5-((2S,3R,4R,5S,6R)-3,4,5-trihydroxy-6-(methylthio)tetrahydro-2H-pyran-2-yl)benzyl)phenoxy)butanamido)-2-methylpropanoic acid]"
< 10,,< 100,"CS[C@H]1O[C@@H](c2ccc(C)c(Cc3ccc(CCCCCCC(=O)NC(C)(C)CO)cc3)c2)[C@H](O)[C@@H](O)[C@@H]1O [N-(1-hydroxy-2-methylpropan-2-yl)-7-(4-(2-methyl-5-((2S,3R,4R,5S,6R)-3,4,5-trihydroxy-6-(methylthio)tetrahydro-2H-pyran-2-yl)benzyl)phenyl)heptanamide]"
< 10,,< 10,"CS[C@H]1O[C@@H](c2ccc(C)c(Cc3ccc(OCCCC(=O)NCC(C)(C)C(=O)N4CCN(C)CC4)cc3)c2)[C@H](O)[C@@H](O)[C@@H]1O [N-(2,2-dimethyl-3-(4-methylpiperazin-1-yl)-3-oxopropyl)-4-(4-(2-methyl-5-((2S,3R,4R,5S,6R)-3,4,5-trihydroxy-6-(methylthio)tetrahydro-2H-pyran-2-yl)benzyl)phenoxy)butanamide]"
< 10,,< 10,"CS[C@H]1OC(c2ccc(C)c(Cc3ccc(OCCCNC(C)(CO)CO)cc3)c2)[C@H](O)[C@@H](O)[C@@H]1O (stereo partly drawn) [(3R,4R,5S,6R)-2-(3-(4-(3-((1,3-dihydroxy-2-methylpropan-2-yl)amino)propoxy)benzyl)-4-methylphenyl)-6-(methylthio)tetrahydro-2H-pyran-3,4,5-triol]"
< 10,,< 10,"CS[C@H]1O[C@@H](c2ccc(C)c(Cc3ccc(OCCCC(=O)NC(C)(C)CO)cc3)c2)[C@H](O)[C@@H](O)[C@@H]1O [N-(1-hydroxy-2-methylpropan-2-yl)-4-(4-(2-methyl-5-((2S,3R,4R,5S,6R)-3,4,5-trihydroxy-6-(methylthio)tetrahydro-2H-pyran-2-yl)benzyl)phenoxy)butanamide]"
< 100,,< 100,"CS[C@H]1O[C@@H](c2ccc(C)c(Cc3ccc(OCCCC(=O)NC(C)(CO)CO)cc3)c2)[C@H](O)[C@@H](O)[C@@H]1O [N-(1,3-dihydroxy-2-methylpropan-2-yl)-4-(4-(2-methyl-5-((2S,3R,4R,5S,6R)-3,4,5-trihydroxy-6-(methylthio)tetrahydro-2H-pyran-2-yl)benzyl)phenoxy)butanamide]"
< 100,—,,"CS[C@H]1O[C@@H](c2ccc(C)c(Cc3ccc(CCCCC(=O)NC(C)(C)C(=O)O)cc3)c2)[C@H](O)[C@@H](O)[C@@H]1O [2-methyl-2-(5-(4-(2-methyl-5-((2S,3R,4R,5S,6R)-3,4,5-trihydroxy-6-(methylthio)tetrahydro-2H-pyran-2-yl)benzyl)phenyl)pentanamido)propanoic acid]"
< 10,,< 100,"CS[C@H]1O[C@@H](c2ccc(Cl)c(Cc3ccc(OCC(=O)NC(C)(C)C(N)=O)cc3)c2)[C@H](O)[C@@H](O)[C@@H]1O [2-(2-(4-(2-chloro-5-((2S,3R,4R,5S,6R)-3,4,5-trihydroxy-6-(methylthio)tetrahydro-2H-pyran-2-yl)benzyl)phenoxy)acetamido)-2-methylpropanamide]"
< 10,,< 100,"CS[C@H]1O[C@@H](c2ccc(C)c(Cc3ccc(CCCC(=O)NCC(C)(C)C(=O)NC4CCNCC4)cc3)c2)[C@H](O)[C@@H](O)[C@@H]1O [N-(2,2-dimethyl-3-oxo-3-(piperidin-4-ylamino)propyl)-4-(4-(2-methyl-5-((2S,3R,4R,5S,6R)-3,4,5-trihydroxy-6-(methylthio)tetrahydro-2H-pyran-2-yl)benzyl)phenyl)butanamide]"
< 10,,< 10,"CS[C@H]1O[C@@H](c2ccc(Cl)c(Cc3ccc(OCCCC(=O)NC(C)(C)CO)cc3)c2)[C@H](O)[C@@H](O)[C@@H]1O [4-(4-(2-chloro-5-((2S,3R,4R,5S,6R)-3,4,5-trihydroxy-6-(methylthio)tetrahydro-2H-pyran-2-yl)benzyl)phenoxy)-N-(1-hydroxy-2-methylpropan-2-yl)butanamide]"
< 10,,< 10,"CS[C@H]1O[C@@H](c2ccc(Cl)c(Cc3ccc(OCCCC(=O)N(C)C(C)(C)C(N)=O)cc3)c2)[C@H](O)[C@@H](O)[C@@H]1O [N-(1-amino-2-methyl-1-oxopropan-2-yl)-4-(4-(2-chloro-5-((2S,3R,4R,5S,6R)-3,4,5-trihydroxy-6-(methylthio)tetrahydro-2H-pyran-2-yl)benzyl)phenoxy)-N-methylbutanamide]"
< 10,,< 10,"CS[C@H]1O[C@@H](c2ccc(C)c(Cc3ccc(CCCC(=O)NC(C)(C)C(N)=O)cc3)c2)[C@H](O)[C@@H](O)[C@@H]1O [N-(1-amino-2-methyl-1-oxopropan-2-yl)-4-(4-(2-methyl-5-((2S,3R,4R,5S,6R)-3,4,5-trihydroxy-6-(methylthio)tetrahydro-2H-pyran-2-yl)benzyl)phenyl)butanamide]"
< 10,,< 100,"CCNC(=O)CCCOc1ccc(Cc2cc([C@@H]3O[C@H](SC)[C@@H](O)[C@H](O)[C@H]3O)ccc2Cl)cc1 [4-(4-(2-chloro-5-((2S,3R,4R,5S,6R)-3,4,5-trihydroxy-6-(methylthio)tetrahydro-2H-pyran-2-yl)benzyl)phenoxy)-N-ethylbutanamide]"
< 10,,< 10,"CS[C@H]1O[C@@H](c2ccc(C)c(Cc3ccc(CCCC(=O)NC4(C(=O)N5CCN(C)CC5)CCOCC4)cc3)c2)[C@H](O)[C@@H](O)[C@@H]1O [4-(4-(2-methyl-5-((2S,3R,4R,5S,6R)-3,4,5-trihydroxy-6-(methylthio)tetrahydro-2H-pyran-2-yl)benzyl)phenyl)-N-(4-(4-methylpiperazine-1-carbonyl)tetrahydro-2H-pyran-4-yl)butanamide]"
< 10,,< 10,"CS[C@H]1OC(c2ccc(C)c(Cc3ccc(OCCNC(=O)NCC(C)(C)C(N)=O)cc3)c2)[C@H](O)[C@@H](O)[C@@H]1O (stereo partly drawn) [2,2-dimethyl-3-(3-(2-(4-(2-methyl-5-((3R,4R,5S,6R)-3,4,5-trihydroxy-6-(methylthio)tetrahydro-2H-pyran-2-yl)benzyl)phenoxy)ethyl)ureido)propanamide]"
< 10,,< 10,"CS[C@H]1O[C@@H](c2ccc(C)c(Cc3ccc(OCCCC(=O)N[C@H](C)C(N)=O)cc3)c2)[C@H](O)[C@@H](O)[C@@H]1O [N-((R)-1-amino-1-oxopropan-2-yl)-4-(4-(2-methyl-5-((2S,3R,4R,5S,6R)-3,4,5-trihydroxy-6-(methylthio)tetrahydro-2H-pyran-2-yl)benzyl)phenoxy)butanamide]"
< 10,,< 10,"CS[C@H]1O[C@@H](c2ccc(C)c(Cc3ccc(CCCC(=O)NC(C)(C)C(=O)NC4CCNCC4)cc3)c2)[C@H](O)[C@@H](O)[C@@H]1O [N-(2-methyl-1-oxo-1-(piperidin-4-ylamino)propan-2-yl)-4-(4-(2-methyl-5-((2S,3R,4R,5S,6R)-3,4,5-trihydroxy-6-(methylthio)tetrahydro-2H-pyran-2-yl)benzyl)phenyl)butanamide]"
< 10,,< 100,"CS[C@H]1O[C@@H](c2ccc(C)c(Cc3ccc(CCCC(=O)NCC(C)(C)C(=O)O)cc3)c2)[C@H](O)[C@@H](O)[C@@H]1O [2,2-dimethyl-3-(4-(4-(2-methyl-5-((2S,3R,4R,5S,6R)-3,4,5-trihydroxy-6-(methylthio)tetrahydro-2H-pyran-2-yl)benzyl)phenyl)butanamido)propanoic acid]"
